Experimental data from PubChem BioAssay AID1963834 (Molecular Pharmacology Branch, DTP, NCI, 2024).

System: 873145-292-R-J1-PDC complex spheroid viability
Assay: Anticancer human tumor 873145-292-R-J1-PDC patient-derived renal clear cell carcinoma cell line growth inhibition [POLQ]
Details: for IC50: curve of first compound; for viability, T/C: stronger effect = lower value
Procedure, shortened: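 Growth inhibition in 3D: complex spheroids (tumor PDC, HUVEC, MSC) treated with POLQ inhibitor combinations; where Cmax unknown, highest tested concentration 10 microM, except SN-38 at 1 microM.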

[1] = second compound 0.0316 µM, first compound 0.0316 µM
[2] = second compound 0.0316 µM, first compound 0.1 µM
[3] = second compound 0.0316 µM, first compound 0.316 µM
[4] = second compound 0.0316 µM, first compound 1 µM
[5] = second compound 0.0316 µM, first compound 3.16 µM
[6] = second compound 0.0316 µM, first compound 10 µM
[7] = second compound 0.1 µM, first compound 0.0316 µM
[8] = second compound 0.1 µM, first compound 0.1 µM
[9] = second compound 0.1 µM, first compound 0.316 µM
[10] = second compound 0.1 µM, first compound 1 µM
[11] = second compound 0.1 µM, first compound 3.16 µM
[12] = second compound 0.1 µM, first compound 10 µM
[13] = second compound 0.316 µM, first compound 0.0316 µM
[14] = second compound 0.316 µM, first compound 0.1 µM
[15] = second compound 0.316 µM, first compound 0.316 µM
[16] = second compound 0.316 µM, first compound 1 µM
[17] = second compound 0.316 µM, first compound 3.16 µM
[18] = second compound 0.316 µM, first compound 10 µM
[19] = second compound 1 µM, first compound 0.0316 µM
[20] = second compound 1 µM, first compound 0.1 µM
[21] = second compound 1 µM, first compound 0.316 µM
[22] = second compound 1 µM, first compound 1 µM
[23] = second compound 1 µM, first compound 3.16 µM
[24] = second compound 1 µM, first compound 10 µM
[25] = second compound 3.16 µM, first compound 0.0316 µM
[26] = second compound 3.16 µM, first compound 0.1 µM
[27] = second compound 3.16 µM, first compound 0.316 µM
[28] = second compound 3.16 µM, first compound 1 µM
[29] = second compound 3.16 µM, first compound 3.16 µM
[30] = second compound 3.16 µM, first compound 10 µM
[31] = second compound 10 µM, first compound 0.0316 µM
[32] = second compound 10 µM, first compound 0.1 µM
[33] = second compound 10 µM, first compound 0.316 µM
[34] = second compound 10 µM, first compound 1 µM
[35] = second compound 10 µM, first compound 3.16 µM
[36] = second compound 10 µM, first compound 10 µM
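Further: spheroids exposed to compounds for 7 days before viability readout.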
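Wherever viability, T/C is given: luminescence signal used as surrogate for viable cell content; 100% = DMSO vehicle control viability.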

CC1COCCN1c1cc(C2(O)CC3CCC(C2)O3)c2cnn(-c3ccn[nH]3)c2n1 (centres undefined) + COC1C(OC(N)=O)C(O)C(Oc2ccc3c(O)c(NC(=O)c4ccc(O)c(CC=C(C)C)c4)c(=O)oc3c2C)OC1(C)C
IC50 (second compound 0.0316 µM): 423 nM | IC50 (second compound 0.1 µM): 562 nM | IC50 (second compound 0.316 µM): 311 nM | IC50 (second compound 1 µM): 484 nM | IC50 (second compound 3.16 µM): 362 nM | IC50 (second compound 10 µM): 691 nM | viability, T/C [1]: 90.3% | viability, T/C [2]: 71.8% | viability, T/C [3]: 53.9% | viability, T/C [4]: 40.4% | viability, T/C [5]: 38.6% | viability, T/C [6]: 37.2% | viability, T/C [7]: 85.8% | viability, T/C [8]: 67.2% | viability, T/C [9]: 57.1% | viability, T/C [10]: 43.6% | viability, T/C [11]: 39.3% | viability, T/C [12]: 38.5% | viability, T/C [13]: 86.3% | viability, T/C [14]: 72.9% | viability, T/C [15]: 50.2% | viability, T/C [16]: 40.2% | viability, T/C [17]: 49.5% | viability, T/C [18]: 37.7% | viability, T/C [19]: 84.3% | viability, T/C [20]: 68.6% | viability, T/C [21]: 58.5% | viability, T/C [22]: 38.9% | viability, T/C [23]: 36.3% | viability, T/C [24]: 37% | viability, T/C [25]: 93.8% | viability, T/C [26]: 73.5% | viability, T/C [27]: 52.9% | viability, T/C [28]: 38.3% | viability, T/C [29]: 36.2% | viability, T/C [30]: 38.5% | viability, T/C [31]: 87.7% | viability, T/C [32]: 71.9% | viability, T/C [33]: 58.3% | viability, T/C [34]: 45.6% | viability, T/C [35]: 41.6% | viability, T/C [36]: 40.9%

CCc1cc2c(N3CCc4c(cc(Cn5ccnc5)cc4-c4cn(C)nc4C(F)(F)F)C3=O)cc(C)nc2c(OC)n1 + COC1C(OC(N)=O)C(O)C(Oc2ccc3c(O)c(NC(=O)c4ccc(O)c(CC=C(C)C)c4)c(=O)oc3c2C)OC1(C)C
IC50 (second compound 0.0316 µM): > 10000 nM | IC50 (second compound 0.1 µM): > 10000 nM | IC50 (second compound 0.316 µM): > 10000 nM | IC50 (second compound 1 µM): > 10000 nM | IC50 (second compound 3.16 µM): > 10000 nM | IC50 (second compound 10 µM): > 10000 nM | viability, T/C [1]: 96% | viability, T/C [2]: 98.1% | viability, T/C [3]: 93.6% | viability, T/C [4]: 99.2% | viability, T/C [5]: 86.6% | viability, T/C [6]: 83% | viability, T/C [7]: 92.5% | viability, T/C [8]: 105% | viability, T/C [9]: 96.4% | viability, T/C [10]: 88.5% | viability, T/C [11]: 90.4% | viability, T/C [12]: 79.8% | viability, T/C [13]: 113% | viability, T/C [14]: 97.5% | viability, T/C [15]: 94.3% | viability, T/C [16]: 90.8% | viability, T/C [17]: 89.2% | viability, T/C [18]: 83.3% | viability, T/C [19]: 99.4% | viability, T/C [20]: 106% | viability, T/C [21]: 78.8% | viability, T/C [22]: 84.7% | viability, T/C [23]: 83.6% | viability, T/C [24]: 84.2% | viability, T/C [25]: 99.6% | viability, T/C [26]: 93% | viability, T/C [27]: 99.8% | viability, T/C [28]: 82.7% | viability, T/C [29]: 77.5% | viability, T/C [30]: 74% | viability, T/C [31]: 88.1% | viability, T/C [32]: 82.8% | viability, T/C [33]: 101% | viability, T/C [34]: 77.7% | viability, T/C [35]: 92.6% | viability, T/C [36]: 96.2%
